Data reported in ChEMBL document CHEMBL1201862, “PubChem BioAssay data set” (2004).
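1) Cells in 96-well plates. 2) Compound, 48 h, 5 concentrations. 3) Linear interpolation between surrounding doses. 4) Unreached endpoint = highest concentration. At the GI50, growth is halved.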 Active and inactive are the calls of the source. Rule as the data show it: active = GI50 up to about 1.1 µM and inactive = higher.

Assays:
Assay in all cases: NCI anticancer screen, dose series, 48 h
[1] = tested on: BT-549
[2] = tested on: CCRF-CEM
[3] = tested on: SW-620
[4] = tested on: NCI/ADR-RES
[5] = tested on: SK-OV-3
[6] = tested on: RPMI-8226
[7] = tested on: HCT-15
[8] = tested on: HCT-116
[9] = tested on: Malme-3M
[10] = tested on: EKVX
[11] = tested on: HCC 2998
[12] = tested on: SF-539
[13] = tested on: MCF7
[14] = tested on: HL-60
[15] = tested on: OVCAR-8
[16] = tested on: SK-MEL-28
[17] = tested on: A549
[18] = tested on: SK-MEL-2
[19] = tested on: MDA-MB-435

In the case of C=C(C)[C@@H]1CC[C@]2(C(=O)O)CC[C@]3(C)[C@H](CC[C@@H]4[C@@]5(C)CC[C@H](O)C(C)(C)[C@@H]5CC[C@]43C)[C@@H]12 [BETULINIC ACID], the GI50 [1] is reported as 2.53 µM (inactive), the GI50 [2] is reported as 5.15 µM (inactive) and the GI50 [3] is reported as 18.2 µM (inactive). For the same molecule, the GI50 [4] was 7.23 µM (inactive), the GI50 [5] was 15.9 µM (inactive) and the GI50 [6] was 7.36 µM (inactive). The GI50 [7] was 8.67 µM, the GI50 [8] was 4.27 µM (inactive) and the GI50 [9] was 7.59 µM (inactive). The GI50 [10] was 16.1 µM (inactive), the GI50 [11] was 6.31 µM (inactive) and the GI50 [12] was 4.03 µM (inactive). For the same molecule, the GI50 [13] was 13.7 µM (inactive), the GI50 [14] was 2.97 µM (inactive) and the GI50 [15] was 4.85 µM (inactive). The GI50 [16] was 17.1 µM (inactive), the GI50 [17] was 4.88 µM (inactive) and the GI50 [18] was 12.4 µM (inactive). For the same molecule, the GI50 [19] was 13.7 µM (inactive).
With COc1ccc(/C=C/c2ccnc3ccccc23)c(OC)c1 the GI50 [1] was 7.18 µM (inactive), the GI50 [2] was 4.97 µM (inactive) and the GI50 [3] was 5.94 µM (inactive). The GI50 [4] was 3.86 µM (inactive), the GI50 [5] was > 10 µM (inactive) and the GI50 [6] was 7.33 µM (inactive). The GI50 [7] was 6.49 µM, the GI50 [8] was 3.56 µM (inactive) and the GI50 [9] was 5.69 µM (inactive). For the same molecule, the GI50 [10] was 5.19 µM (inactive), the GI50 [11] was 6.82 µM (inactive) and the GI50 [12] was 4.34 µM (inactive). The GI50 [13] was 3.07 µM (inactive), the GI50 [14] was 3.61 µM (inactive) and the GI50 [15] was 7.52 µM (inactive). The GI50 [16] was > 10 µM (inactive), the GI50 [17] was > 10 µM (inactive) and the GI50 [18] was 8.51 µM (inactive). The GI50 [19] was 2.36 µM (inactive).
With Clc1cccc(/C=N/C23CC4CC(CC(C4)C2)C3)c1Cl the GI50 [1] was > 10 µM (inactive), the GI50 [2] was > 10 µM (inactive) and the GI50 [3] was > 10 µM (inactive). The GI50 [4] was > 10 µM (inactive), the GI50 [5] was > 10 µM (inactive) and the GI50 [6] was > 10 µM (inactive). For the same molecule, the GI50 [7] was > 10 µM, the GI50 [8] was 6.35 µM (inactive) and the GI50 [9] was > 10 µM (inactive). For the same molecule, the GI50 [10] was > 10 µM (inactive), the GI50 [11] was > 10 µM (inactive) and the GI50 [12] was > 10 µM (inactive). For the same molecule, the GI50 [13] was > 10 µM (inactive), the GI50 [14] was 6.28 µM (inactive) and the GI50 [15] was > 10 µM (inactive). For the same molecule, the GI50 [16] was > 10 µM (inactive), the GI50 [17] was > 10 µM (inactive) and the GI50 [18] was > 10 µM (inactive). For the same molecule, the GI50 [19] was > 10 µM (inactive).
With COC(=O)c1ccc(NCc2cc(O)c3ccccc3c2O)cc1 the GI50 [1] was 16.6 µM (inactive), the GI50 [2] was 2.86 µM (inactive) and the GI50 [3] was 12.9 µM (inactive). The GI50 [4] was 27.1 µM (inactive), the GI50 [5] was 16.8 µM (inactive) and the GI50 [6] was 3.45 µM (inactive). For the same molecule, the GI50 [7] was 8.49 µM, the GI50 [8] was 15.7 µM (inactive) and the GI50 [9] was 2.56 µM (inactive). The GI50 [10] was 18.3 µM (inactive), the GI50 [11] was 21.9 µM (inactive) and the GI50 [12] was 15.3 µM (inactive). The GI50 [13] was 3.68 µM (inactive), the GI50 [14] was 3.3 µM (inactive) and the GI50 [15] was 24.4 µM (inactive). The GI50 [16] was 5.65 µM (inactive), the GI50 [17] was 10.8 µM (inactive) and the GI50 [18] was 18.2 µM (inactive). The GI50 [19] was 2.11 µM (inactive).
For Brc1ccc2c(-c3nc(-c4c[nH]c5ccc(Br)cc45)cs3)c[nH]c2c1, the GI50 [1] was 13.3 µM (inactive), the GI50 [2] was 4.68 µM (inactive) and the GI50 [3] was 4.61 µM (inactive). The GI50 [4] was 4.56 µM (inactive), the GI50 [5] was 15.4 µM (inactive) and the GI50 [6] was 3.43 µM (inactive). The GI50 [7] was 3.39 µM, the GI50 [8] was 3.67 µM (inactive) and the GI50 [9] was 4.24 µM (inactive). The GI50 [10] was 1.24 µM (inactive), the GI50 [11] was 2.48 µM (inactive) and the GI50 [12] was 5.06 µM (inactive). For the same molecule, the GI50 [13] was 0.887 µM (active), the GI50 [14] was 6.43 µM (inactive) and the GI50 [15] was 7.14 µM (inactive). The GI50 [16] was 11.3 µM (inactive), the GI50 [17] was 4.14 µM (inactive) and the GI50 [18] was 6.25 µM (inactive). For the same molecule, the GI50 [19] was 5.26 µM (inactive).
In the case of CC(=O)OC/C=C(\C)CCC(Br)C(C)(C)Br (stereo not drawn), the GI50 [1] is reported as > 10 µM (inactive), the GI50 [2] is reported as > 10 µM (inactive) and the GI50 [3] is reported as > 10 µM (inactive). For the same molecule, the GI50 [4] was > 10 µM (inactive), the GI50 [5] was > 10 µM (inactive) and the GI50 [6] was > 10 µM (inactive). The GI50 [7] was > 10 µM, the GI50 [8] was > 10 µM (inactive) and the GI50 [9] was > 10 µM (inactive). The GI50 [10] was > 10 µM (inactive), the GI50 [11] was > 10 µM (inactive) and the GI50 [12] was > 10 µM (inactive). For the same molecule, the GI50 [13] was > 10 µM (inactive), the GI50 [14] was > 10 µM (inactive) and the GI50 [15] was > 10 µM (inactive). The GI50 [16] was > 10 µM (inactive), the GI50 [17] was > 10 µM (inactive) and the GI50 [18] was > 10 µM (inactive). For the same molecule, the GI50 [19] was > 10 µM (inactive).
For COc1ccc(-c2cc(=O)c3c(O)c(OC)c(OC)c(OC)c3o2)cc1 [GARDENIN B], the GI50 [1] was 16.2 µM (inactive), the GI50 [2] was > 100 µM (inactive) and the GI50 [3] was 2.13 µM (inactive). For the same molecule, the GI50 [4] was > 100 µM (inactive), the GI50 [5] was 8.38 µM (inactive) and the GI50 [6] was > 28.1 µM (inactive). For the same molecule, the GI50 [7] was 2.37 µM, the GI50 [8] was 13.4 µM (inactive) and the GI50 [9] was > 28.6 µM (inactive). For the same molecule, the GI50 [10] was > 100 µM (inactive), the GI50 [11] was 1.71 µM (inactive) and the GI50 [12] was > 61.7 µM (inactive). The GI50 [13] was 4.86 µM (inactive), the GI50 [14] was 0.863 µM (active) and the GI50 [15] was > 100 µM (inactive). The GI50 [16] was > 100 µM (inactive), the GI50 [17] was 10.1 µM (inactive) and the GI50 [18] was 12.8 µM (inactive). For the same molecule, the GI50 [19] was 0.431 µM (active).
